The values that follow come from patent publication US8486943B2, “Tetrahydrocyclopenta[b]indole androgen receptor modulators” (Eli Lilly and Company, priority 2008, dated 2013).

Like-named read-outs stand apart in the source and are kept apart here.

Assay [1] concerns the target T1, human androgen receptor (AR) (Homo sapiens, UniProt P10275).
T1 construct: expressed in transfected cells; host or cells: mouse myoblast C2C12 cells, transient co-transfection with Fugene
T1 sequence (P10275 1-920): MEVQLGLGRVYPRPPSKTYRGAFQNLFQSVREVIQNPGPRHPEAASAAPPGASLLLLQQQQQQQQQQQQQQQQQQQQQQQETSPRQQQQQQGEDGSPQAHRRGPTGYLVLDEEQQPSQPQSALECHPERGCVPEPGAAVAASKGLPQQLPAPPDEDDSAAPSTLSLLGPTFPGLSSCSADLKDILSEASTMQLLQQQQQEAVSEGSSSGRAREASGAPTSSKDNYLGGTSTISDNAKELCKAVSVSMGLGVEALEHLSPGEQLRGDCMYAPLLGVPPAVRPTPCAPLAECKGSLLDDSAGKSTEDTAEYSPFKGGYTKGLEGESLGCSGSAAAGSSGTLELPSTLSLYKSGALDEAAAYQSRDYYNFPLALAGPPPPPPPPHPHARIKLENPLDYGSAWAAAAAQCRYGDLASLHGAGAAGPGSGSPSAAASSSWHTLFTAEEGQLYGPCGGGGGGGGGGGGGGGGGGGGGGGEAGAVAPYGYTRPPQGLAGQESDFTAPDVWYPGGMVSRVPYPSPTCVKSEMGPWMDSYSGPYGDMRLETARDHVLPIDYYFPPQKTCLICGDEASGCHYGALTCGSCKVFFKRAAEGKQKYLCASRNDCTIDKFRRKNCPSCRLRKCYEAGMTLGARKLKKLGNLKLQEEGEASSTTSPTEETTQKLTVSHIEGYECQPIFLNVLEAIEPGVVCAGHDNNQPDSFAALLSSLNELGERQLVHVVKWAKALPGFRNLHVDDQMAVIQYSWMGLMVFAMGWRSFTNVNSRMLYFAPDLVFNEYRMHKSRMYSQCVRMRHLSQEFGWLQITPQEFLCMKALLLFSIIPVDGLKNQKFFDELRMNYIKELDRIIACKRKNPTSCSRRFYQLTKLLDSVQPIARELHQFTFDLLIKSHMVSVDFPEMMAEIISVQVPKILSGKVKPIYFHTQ
Nature of the assay: C2C12 AR/ARE reporter assay. The assay is classed as cell-based. The procedure: As an indicator of agonist activity in muscle tissue, the C2C12 AR/ARE reporter assay is performed. Briefly, mouse myoblast C2C12 cells are co-transfected using Fugene™ reagent. A reporter plasmid containing a GRE/ARE (glucocorticoid response element/androgen response element) and TK promoter upstream of the luciferase reporter cDNA, is transfected with a plasmid constitutively expressing human androgen receptor (AR) using viral CMV promoter. Cells are transfected in T150 cm^2 flasks in DMEM media with 4% charcoal stripped Fetal Bovine Serum (FBS). After a 5 hour incubation, transfected cells are trypsinized, plated in 96 well dishes in DMEM media containing 4% charcoal-stripped FBS, incubated for 2 h and then exposed to various concentrations of test compounds ranging from about 0.01 nM to 10 μM. After 48 h of incubations with compounds, cells are lysed and luciferase activity is determined by standard techniques. Data is fit to a 4 parameter-fit logistics to determine EC50 values. The % efficacy is determined versus maximum stimulation obtained with 10 nM methyltrienolone.

Assay [2] addresses T2, human AR (androgen receptor) (Homo sapiens, UniProt P10275).
T2 construct: expressed in transfected cells; host or cells: HEK293 cells (lysate, '293-AR lysate')
T2 sequence (P10275 1-920): T1 sequence (P10275 1-920)
The assay can be described thus: Steroid hormone nuclear receptor binding assay (AR binding). The procedure: Cell lysates from human embryonic kidney HEK293 cells overexpressing human MR (mineralocorticoid receptor), GR (glucocorticoid receptor), AR (androgen receptor), or PR (progesterone receptor) are used for receptor-ligand competition binding assays to determine Ki values. Typical procedures are provided below
Briefly, steroid receptor competition binding assays are run in a buffer containing 20 mM HEPES buffer (pH=7.6), 0.2 mM EDTA, 75 mM NaCl, 1.5 mM MgCl2, 20% glycerol, 20 mM sodium molybdate, 0.2 mM DTT (dithiothreitol), 20 μg/mL aprotinin and 20 μg/mL leupeptin (assay buffer). […] Assays are typically run in 96-well format. Competing test compounds are added at various concentrations ranging from about 0.01 nM to 10 μM. Non-specific binding is determined in the presence of 500 nM aldosterone for MR binding, 500 nM dexamethasone for GR binding, or 500 nM methyltrienolone for AR and PR binding. […] Plates are mixed for 8 minutes on an orbital shaker at 4° C. The plates are then centrifuged at 3,000 rpm at 4° C. for 10 minutes. An aliquot of 120 μL of the binding reaction mixture is then transferred to another 96-well plate and 175 μL of Wallac Optiphase Hisafe 3™ scintillation fluid is added to each well. Plates are sealed and shaken vigorously on an orbital shaker. After an incubation of 2 hours, plates are read in a Wallac Microbeta counter.
The Kd for [^3H]-aldosterone for MR binding, [^3H]-dexamethasone for GR binding, [^3H]-methyltrienolone for AR binding, or [^3H]-methyltrienolone for PR binding, is determined by saturation binding. The IC50 values for compounds are converted to Ki using the Cheng-Prusoff equation.

Assay [3] concerns penile nitric oxide synthase (pnNOS) mRNA. Nature of the assay: pnNOS mRNA by real-time quantitative PCR in bulbocavernosum tissue of treated castrated rats. It is filed as in vivo, rat. The conditions noted are these: eight weeks. The procedure:
(§1) RNA is isolated from frozen bulbous and corpus cavernosum tissues that are obtained at necropsy from castrated Sprague Dawley rats that are prepared and dosed essentially as described above for the Model of Efficacy and Selectivity. cDNA is synthesized from 2 μg of RNA using a high capacity cDNA kit according to the manufacturer's instructions.
(§2) Real-time quantitative PCR is then performed according to the fluorescent TaqMan® methodology (Applied Biosystems). Assays-on-Demand™ (Applied Biosystems) probes are used for the rat […] nitric oxide synthase transcript (eNOS) while probes are designed for the rat penile specific isoform of neuronal nitric oxide synthase (pnNOS) using probe designer software (Applied Biosystems). The probes are designed to span a 102 bp region of the rat neuronal nitric oxide synthase gene (pnNOS) that is specific to pnNOS (positions 2865-2967). MGB™ Primer sequences are 5′CCGGAACCCTTGCGTTT 3′ (SEQ ID NO:1) (forward) and 5′[…] 3′ (SEQ ID NO:2) (reverse) and the probe sequence is 5′CCCGTAAAGGGCCT 3′ (SEQ ID NO:3) (FAM NFQ). Assays-on-Demand™ probe sets for the PPIB transcript are used as an internal control. PCR is performed on an ABI Prism 7700 Sequence Detection System at the following thermocycler conditions: 2 min. at 50° C., 10 min. at 95° C., and 40 cycles at 95° C. for 30 s, and 60° C. for 1 min. All reactions are carried out in triplicate.

In assay [4] the test system is castrated (GDX) male Sprague Dawley rats. Nature of the assay: Model of Efficacy and Selectivity (castrated rats, tissue wet weights). It is filed as in vivo, rat. The following applies: eight week treatment; for mean LA wet weight / mean bulbocavernous wet weight / mean prostate wet weight: oral daily. The procedure: Male Sprague Dawley rats (24 weeks old) are castrated (gonadectomized or “GDX”) according to approved procedures and allowed to waste for eight weeks. Age-matched sham-operated […] are also prepared Animals are housed in a temperature-controlled room (24° C.) with a reversed 12 hour light/dark cycle and water and food are available ad libitum.
Animals are randomized based on body weight prior to ascribing a test slot. Compounds of the present invention are administered daily by oral gavage to the castrated thirty two week old rats (body weight about 450-500 g) using a conventional vehicle such as 1% sodium carboxymethylcellulose (CMC)+0.25% Tween 80+0.05% AntiFoam® in sterile H2O. Sham operated rats treated with vehicle alone are used as a treatment positive controls whereas castrated rats treated only with vehicle are used as treatment negative control.
Test animals are dosed daily over a two or eight week timeframe with, for example, 0.3, 1, 2, 3, or 6 mg/kg/day of a compound of the present invention. After the treatment period, animals are sacrificed and the wet weight of the Levator Ani (LA) muscle and the bulbocavernous muscle in each test group may determined and compared to the wet weight of the Levator Ani and the bulbocavernous muscle from the castrated, vehicle-only control group (after weighing, the bulbocavernous muscle may be flash frozen in liquid nitrogen for later use in measuring nitric oxide synthase mRNA, as described below) As an indicator of tissue selective activity, the wet weight of the prostate from test animals may be similarly compared to the wet weight of the prostate from the castrated, vehicle-only group.

Assay [5] has as its system epithelial nitric oxide synthase (eNOS) mRNA. The assay can be described thus: eNOS mRNA by real-time quantitative PCR in corpus cavernosum tissue of treated castrated rats. The assay is classed as in vivo, rat. The conditions noted are these: 2 mg/kg/day, two weeks. The procedure:
as §1, §2

For `CC(C)OC(=O)N[C@H]1Cc2c(n(C[C@@H]3N(C)CC[C@@]3(C)O)c3ccc(C#N)cc23)C1` (relative stereo) [Example 6, [(S)-7-Cyano-4-(trans-3-hydroxy-1-methyl-3-methyl-pyrrolidin-2-ylmethyl)-1,2,3,4-tetrahydro-cyclopenta[b]indol-2-yl]-carbamic acid isopropyl ester], the EC50 in assay [1] (mouse myoblast C2C12 cells transfected with human AR, no unit printed for these values, read-out: EC50 in the C2C12 AR/ARE reporter assay) was roughly 0.3 nM.
For the molecule `CC(C)OC(=O)N[C@H]1Cc2c(n(C[C@H]3NCC[C@@H]3O)c3ccc(C#N)cc23)C1` [Example 1, [(S)-7-Cyano-4-((2R,3S)-3-hydroxy-pyrrolidin-2-ylmethyl)-1,2,3,4-tetrahydrocyclopenta[b]indol-2-yl]-carbamic acid isopropyl ester], the Ki (as a rule, the equilibrium dissociation constant of an inhibitor or competing ligand from its target) in assay [2] was roughly 51 nM. The same molecule displayed an EC50 in assay [1] of roughly 20 nM.
Consider `CC(C)OC(=O)N[C@H]1Cc2c(n(C[C@@H]3[C@@H](O)CCN3C)c3ccc(C#N)cc23)C1` [Example 2, [(S)-7-Cyano-4-((2R,3S)-3-hydroxy-1-methyl-pyrrolidin-2-ylmethyl)-1,2,3,4-tetrahydrocyclopenta[b]indol-2-yl]-carbamic acid isopropyl ester], for which the pnNOS expression entry in assay [3] (0.3 mg/kg) is “about 97 % of control”; in assay [3] (1.0 mg/kg), “about 93 % of control”; in assay [3] (3.0 mg/kg), “about 153 % of control”; in assay [3] (6.0 mg/kg), “about 248 % of control”. In assay [3] (0.3-6.0 mg/kg), the “penile nitric oxide synthase (pnNOS) mRNA” value is recorded as “dose dependent increase”. The same molecule registered a Ki in assay [2] of roughly 11 nM. Besides, the “mean LA wet weight” value in assay [4] (0.3 mg/kg) was “about 0.137 g”; in assay [4] (1.0 mg/kg), “about 0.182 g”; in assay [4] (3.0 mg/kg), “about 0.205 g”; in assay [4] (6.0 mg/kg), “about 0.264 g”. The “mean bulbocavernous wet weight” value in assay [4] (0.3 mg/kg) is recorded as “about 0.476 g”; in assay [4] (1.0 mg/kg) it was “about 0.582 g”; in assay [4] (3.0 mg/kg), “about 0.698 g”; in assay [4] (6.0 mg/kg) it was “about 0.955 g”. The “mean prostate wet weight” value is “about 72.4 mg” in assay [4] (0.3 mg/kg), “about 102.8 mg” in assay [4] (1.0 mg/kg), “about 147.4 mg” in assay [4] (3.0 mg/kg) and “about 271.8 mg” in assay [4] (6.0 mg/kg). Also, the “Levator ani weight in comparison to the castrated control group” value in assay [4] (0.3-6.0 mg/kg) is “dose dependent increase”. Besides, the “bulbocavernous weight in comparison to the castrated control group” value in assay [4] (0.3-6.0 mg/kg) was “dose dependent increase”. In addition, the eNOS expression result in assay [5] is given as “about 159 % of control”. In assay [1], this molecule displayed an EC50 of roughly 1 nM.
In the case of `CC(C)OC(=O)N[C@H]1Cc2c(n(Cc3ccccc3O)c3ccc(C#N)cc23)C1` [Example 9, [(S)-7-Cyano-4-(2-hydroxy-benzyl)-1,2,3,4-tetrahydro-cyclopenta[b]indol-2-yl]-carbamic acid isopropyl ester], in assay [2], the Ki was roughly 0.8 nM. The EC50 in assay [1] was roughly 0.3 nM.
